Test results published in patent US20250123290A1, “BIOTIN-FREE PROXIMITY LABELING” (HOWARD HUGHES MEDICAL INSTITUTE, priority 2023, published 2025).

Experiments:
APEX2 in the mouse brain = assay: CLA-tyramide (CLA-phenol) mediated proximity labeling in mouse brain; type: in vivo; conditions: mouse brain samples; FIGS. 4A-4B
Protocol: CLA-tyramide (CLA-phenol) mediated proximity labeling was conducted in mouse brain. […] The mouse brain samples were fixed, permeabilized, and incubated with HaloTag protein. The samples were then stained with antibodies against HaloTag and V5 (on APEX2) to label CLA-tagged proteins and APEX2, respectively.

[1] = tested on: cultured primary neurons expressing LAMP1-APEX2-V5; assay: CLA-tyramide proximity labeling of neuronal lysosomal proteins, imaging with HaloTag protein and antibody staining; type: cell-based, rat; conditions: 150 μM CLA-tyramide, FIG. 2C
Source text: The exemplary system studied in this Example makes use of a unique substrate for proximity labeling, which is a CLA-phenol compound, which in some cases is referred to herein as a CLA-tyramide compound. As will be appreciated, the chemical structure of tyramide includes a phenol moiety. To establish efficacy, the exemplary system was used to detect proteins that are enriched in neuronal lysosomes with lysosome-targeted APEX2 (Lamp1-APEX2).
With reference to FIG. 2A, cultured primary neurons expressing LAMP1-APEX2-V5 were incubated with 0 μM, 50 μM, 150 μM, or 500 μM CLA-tyramide, respectively. Neurons were fixed, permeabilized, and incubated with HaloTag protein. Cells were then stained with antibodies against HaloTag, V5, and MAP5 to label CLA-tagged proteins, LAMP1-APEX2-V5 (lysosome APEX2), and neurons, respectively.
Line scans show the relative intensity of CLA-tagged proteins and LAMP1-APEX2-V5.

cilia and mitochondria = assay: CLA-tyramide labeling in cilia and mitochondria, detection with EGFP-HaloTag protein; type: cell-based; conditions: 250 μM CLA-tyramide; FIGS. 3B and 3D
Protocol: CLA-tyramide labeling was conducted in cilia and mitochondria. FIGS. 3A and 3B show CLA-tyramide labeling in cilia. FIGS. 3C and 3D show CLA-tyramide labeling in mitochondria. FIGS. 3B and 3D are from experiments in which 250 μM CLA-tyramide was applied to cells. Cells were fixed, permeabilized, and incubated with EGFP-HaloTag protein.

Compound: O=C(NCCOCCOCCCCCCCl)NCCc1ccc(O)cc1 [CLA-tyramide]
- co-localization of CLA-tagged proteins and APEX2 (V5) (APEX2 in the mouse brain): good co-localization of most structures
- colocalization of CLA-tagged proteins and LAMP1-APEX2-V5 (line scans of relative intensity) [1]: Good colocalization
- labeling in different subcellular compartments (cilia, mitochondria) (cilia and mitochondria): can be applied to different subcellular compartments
